Laboratory results as given in patent US20140220477A1, “Polymers, substrates, methods for making such, and devices comprising the same” (Avertica, Inc., priority 2013, published 2014).
Counter-ions that a name gives are not always drawn.

The compounds below were run against T1, mushroom tyrosinase (polyphenol oxidase) Sigma T3824 (Agaricus bisporus, UniProt C7FF04) (assay: Testing of polymer production in enzymatic tyrosinase (polyphenol oxidase) reaction). Settings: approx. 50 mM potassium phosphate buffer pH 6.5, approx. 5 mM substrate, 100 to 10,000 units enzyme, observed over 24 hours.
T1 construct: purchased Sigma T3824
Assay type: biochemical
Set-up: key: +++: Reacted within about 1 hour; ++: reacted within about 3 hours; +: reacted within about 24 hours; +/−: inconclusive results; −: no reaction
Protocol: All reactions were carried out in approximately 50 mM potassium phosphate buffer, pH 6.5 with approximately 5 mM substrate and mushroom tyrosinase (polyphenol oxidase) Sigma T3824 in an amount of 100 to 10,000 units. Reaction volumes varied from 200 μl to 2 ml. In cases where substrates were not completely solubilized, then a saturated solution was used as the limit of solubility. In some cases, a solution of DMSO was used to increase solubility of the substrates. The enzyme was tested and shown to retain activity up to 50% DMSO. The reactions were observed over a 24 hour period for the production of polymers, and the presence and color of polymer and solution was recorded.
The production of polymers in each reaction was visible as a precipitate in the well of a 96 well plate or in the reaction mixture on a glass slide.

T1 sequence (C7FF04 1-392 limits assumed): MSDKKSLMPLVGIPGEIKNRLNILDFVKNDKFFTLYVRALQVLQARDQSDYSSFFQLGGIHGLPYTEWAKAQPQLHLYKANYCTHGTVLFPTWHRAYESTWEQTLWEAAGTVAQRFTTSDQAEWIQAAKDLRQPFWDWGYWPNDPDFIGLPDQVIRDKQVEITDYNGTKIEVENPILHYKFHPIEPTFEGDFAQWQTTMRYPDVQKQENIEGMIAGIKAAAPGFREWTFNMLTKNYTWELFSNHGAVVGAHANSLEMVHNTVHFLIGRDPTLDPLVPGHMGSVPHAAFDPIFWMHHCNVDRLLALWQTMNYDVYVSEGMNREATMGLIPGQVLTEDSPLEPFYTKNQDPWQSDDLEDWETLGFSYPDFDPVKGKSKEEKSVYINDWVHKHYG

| SMILES | Result (polymer production in tyrosinase reaction) |
| --- | --- |
| Oc1ccc2cc(O)ccc2c1 [2,6 dihydroxnaphthalene] | + (reacted within about 24 hours) |
| Oc1ccc2[nH]ccc2c1 [5-hydroxyindole] | +++ (Reacted within about 1 hour) |
| Oc1ccc2cc[nH]c2c1 [6 Hydroxyindole] | ++ (reacted within about 3 hours) |
| Cl.NCCc1ccccc1 [Beta phenylethylamine HCL] | +/− |
| c1ccc2[nH]ccc2c1 [Indole] | − |
| CN[C@@H](Cc1ccc(O)cc1)C(=O)O [N-methyl tyrosine] | ++ (reacted within about 3 hours) |
| Cl.NCCc1ccc(O)cc1 [Tyramine HCl] | +++ (Reacted within about 1 hour) |
| NCCc1ccc(O)cc1 [Tyramine] | +++ (Reacted within about 1 hour) |
| N[C@@H](Cc1ccc(O)cc1)C(=O)O [Tyrosine] | ++ (reacted within about 3 hours) |

Same assay, conditions: as above; marked substrate(s) dissolved in 20% DMSO

| SMILES | Result (polymer production in tyrosinase reaction) |
| --- | --- |
| Oc1ccc(-c2cc(-c3ccc(O)cc3)cc(-c3ccc(O)cc3)c2)cc1 [1,3,5 Tris(4hydroxyphenyl)benzene] | + (reacted within about 24 hours) |
| Oc1ccc2c(c1)[nH]c1ccccc12 [2 Hydroxy carbazole] | − |
| CC1=NCCc2c1[nH]c1cc(O)ccc21 [Harmalol HCl dehydrate] | − |
